{"source": "paper PMC3269340", "about": "“Pharmacokinetics of memantine in rats and mice” (PLoS Currents, 2012)", "assay": "Pharmacokinetics in rats after single iv, po or sc dose (plasma and brain)", "assay_type": "in vivo, Sprague-Dawley rats", "conditions": "male, Sprague-Dawley; for Kp: brain/plasma, read-out: Ratio of Brain-to-Plasma AUC(0-∞); for Vd: read-out: Volume of Distribution at Steady State (Vdss); for bioavailability: read-out: Bioavailability (F); for AUC(0-inf): read-out: AUC(0-∞); for Cmax: read-out: Observed Cmax", "protocol": "Sprague Dawley (SD) rats (138 adult males), and C57Bl/6 mice (140 adult males), were obtained (Hilltop Laboratories, Scottsdale, PA); 123 per species were used in the study and the remainder provided blank matrix. Animals were individually identified by tail markings and were acclimated to the study environment for 16-21 days prior to dose administration. Animals were individually housed in suspended wire caging, and were kept on a 12h/12h light/dark cycle except when interrupted for study procedures. Average room temperature was regulated in the range 18 to 29°C, average relative humidity of 30-70%, and an average daily airflow >10 fresh air changes/h. Animals were fed LabDiet^Ò Certified Rodent Diet 5002 Meal food ad libitum, except during fasting prior to dose administration, and had access to water ad libitum.\n[…] […] The concentration of memantine for the same dose level administered to mice was 0.2 mg eq./mL, and the dose volume was 5 mL/kg. The concentration of memantine in the 10mg eq./kg po and sc solutions was 5 mg eq./mL and the dose volume was 2 mL/kg for both rats and mice.\nDetails of the dose administration, body weights, clinical observations, plasma and brain sample collection and preparation are not shown in this report but are available upon request. Blood (for preparation of plasma) and brain samples were collected at 0.08, 0.25, 0.5, 1, 2, 4, 8, and 24h post-dose.\nSince all time points were terminal, mean memantine concentrations per time point were used to calculate the composite PK parameters by non-compartmental analysis using WinNonlin program, version 5.2 (Pharsight Corp., Mountain View, California). A model was selected based on the vascular (iv bolus) or extravascular (po or sc) routes of administration. For the iv route, plasma concentration at time zero was back extrapolated from the first two observed post dose plasma concentrations. For the po and sc routes, concentration at time zero was assumed to be zero. Plasma and tissue concentrations below the limit of quantitation were treated as absent samples for the purpose of calculating the mean plasma concentration values or for calculating PK parameters.\nThe area under the plasma concentration versus time curve (AUC) was calculated using the linear trapezoidal method (linear interpolation). When appropriate, the terminal elimination phase of the PK profile was estimated based on the best fit (r^2) using at least the last three observed concentrations. PK parameters describing the systemic exposure of memantine in plasma and brain were estimated from observed (rather than predicted) plasma/brain concentrations, the dosing regimen, the AUC, and the terminal elimination phase rate constant (kel) for each group. The portion of the AUC from the last measurable concentration to infinity was estimated from the equation Ct/kel, where Ct represents the last measurable concentration. The extrapolated portion of the AUC was used for the determination of AUC0-∞. The percent bioavailability (%F) was calculated by dividing the dose normalized extravascular plasma AUC0-∞ by the dose normalized iv plasma AUC0-∞ times 100. The bioavailability calculations assumed concentrations were in the linear range.\nConcentrations of memantine in rat and mouse plasma and brain were determined using an LC-MS/MS assay developed at ABC Laboratories.", "key": {"[1]": {"conditions": "rat, brain, iv, 1.22 mg/kg, rat brain, IV 1.22 mg eq./kg"}, "[2]": {"conditions": "rat, brain, po, 1.22 mg/kg, rat brain, PO 1.22 mg eq./kg"}, "[3]": {"conditions": "rat, brain, po, 10 mg/kg, rat brain, PO 10.0 mg eq./kg"}, "[4]": {"conditions": "rat, brain, sc, 1 mg/kg, rat brain, SC 1.0 mg eq./kg"}, "[5]": {"conditions": "rat, brain, sc, 10 mg/kg, rat brain, SC 10.0 mg eq./kg"}}, "note": "Like-named read-outs stand apart in the source and are kept apart here."}
{"compound": "CC12CC3CC(C)(C1)CC(N)(C3)C2", "note": "[memantine]", "values": [{"measurement": "AUC(0-t)", "setting": "1 mg/kg, rat brain, SC 1.0 mg eq./kg", "result": 48, "unit": "µM·h"}, {"measurement": "Tmax", "setting": "1 mg/kg, rat brain, SC 1.0 mg eq./kg, read-out: Observed Tmax", "result": 30, "unit": "min"}, {"measurement": "AUC(0-t)", "setting": "1 mg/kg, rat plasma, SC 1.0 mg eq./kg", "result": 1.62, "unit": "µM·h"}, {"measurement": "Tmax", "setting": "1 mg/kg, rat plasma, SC 1.0 mg eq./kg, read-out: Observed Tmax", "result": 15, "unit": "min"}, {"measurement": "AUC(0-t)", "setting": "1.22 mg/kg, rat brain, IV 1.22 mg eq./kg", "result": 43, "unit": "µM·h"}, {"measurement": "Tmax", "setting": "1.22 mg/kg, rat brain, IV 1.22 mg eq./kg, read-out: Observed Tmax", "result": 30, "unit": "min"}, {"measurement": "AUC(0-t)", "setting": "1.22 mg/kg, rat brain, PO 1.22 mg eq./kg", "result": 13.1, "unit": "µM·h"}, {"measurement": "Tmax", "setting": "1.22 mg/kg, rat brain, PO 1.22 mg eq./kg, read-out: Observed Tmax", "result": 120, "unit": "min"}, {"measurement": "AUC(0-t)", "setting": "1.22 mg/kg, rat plasma, IV 1.22 mg eq./kg", "result": 1.57, "unit": "µM·h"}, {"measurement": "MRT inf", "setting": "1.22 mg/kg, rat plasma, IV 1.22 mg eq./kg, read-out: Mean Residency Time (MRT0-∞)", "result": 2.08, "unit": "h"}, {"measurement": "AUC(0-t)", "setting": "1.22 mg/kg, rat plasma, PO 1.22 mg eq./kg", "result": 0.541, "unit": "µM·h"}, {"measurement": "Tmax", "setting": "1.22 mg/kg, rat plasma, PO 1.22 mg eq./kg, read-out: Observed Tmax", "result": 60, "unit": "min"}, {"measurement": "AUC(0-t)", "setting": "10 mg/kg, rat brain, PO 10.0 mg eq./kg", "result": 254, "unit": "µM·h"}, {"measurement": "Tmax", "setting": "10 mg/kg, rat brain, PO 10.0 mg eq./kg, read-out: Observed Tmax", "result": 120, "unit": "min"}, {"measurement": "AUC(0-t)", "setting": "10 mg/kg, rat brain, SC 10.0 mg eq./kg", "result": 441, "unit": "µM·h"}, {"measurement": "Tmax", "setting": "10 mg/kg, rat brain, SC 10.0 mg eq./kg, read-out: Observed Tmax", "result": 60, "unit": "min"}, {"measurement": "AUC(0-t)", "setting": "10 mg/kg, rat plasma, PO 10.0 mg eq./kg", "result": 11.2, "unit": "µM·h"}, {"measurement": "Tmax", "setting": "10 mg/kg, rat plasma, PO 10.0 mg eq./kg, read-out: Observed Tmax", "result": 30, "unit": "min"}, {"measurement": "AUC(0-t)", "setting": "10 mg/kg, rat plasma, SC 10.0 mg eq./kg", "result": 25.8, "unit": "µM·h"}, {"measurement": "Tmax", "setting": "10 mg/kg, rat plasma, SC 10.0 mg eq./kg, read-out: Observed Tmax", "result": 30, "unit": "min"}, {"measurement": "Kp", "setting": "rat, IV 1.22 mg eq./kg", "result": 29.1}, {"measurement": "Kp", "setting": "rat, PO 1.22 mg eq./kg", "result": 35.6}, {"measurement": "Kp", "setting": "rat, PO 10.0 mg eq./kg", "result": 22.5}, {"measurement": "Kp", "setting": "rat, SC 1.0 mg eq./kg", "result": 31.4}, {"measurement": "Kp", "setting": "rat, SC 10.0 mg eq./kg", "result": 17.1}, {"measurement": "clearance", "setting": "plasma, 1.22 mg/kg, rat, IV 1.22 mg eq./kg, read-out: Plasma Clearance (CLp) (converted)", "result": 69.2, "unit": "mL/min/kg"}, {"measurement": "Vd", "setting": "plasma, 1.22 mg/kg, rat, IV 1.22 mg eq./kg", "result": 8.62, "unit": "L/kg"}, {"measurement": "bioavailability", "setting": "plasma, 1.22 mg/kg, rat, PO 1.22 mg eq./kg", "result": 36.3, "unit": "%"}, {"measurement": "bioavailability", "setting": "plasma, 10 mg/kg, rat, PO 10.0 mg eq./kg", "result": 84.9, "unit": "%"}, {"measurement": "concentration at 24 h", "setting": "plasma, oral, rat, dose 10 mg/kg, single dose in solution, read-out: C min", "result": 30, "unit": "nM"}, {"measurement": "Tmax", "setting": "plasma, po, rat, dose 1 mg/kg, cross-species summary, read-out: T max", "result": 60, "unit": "min"}, {"measurement": "Vd", "setting": "plasma, rat, IV 1.22 mg eq./kg", "result": "8 to 9", "unit": "L/kg"}, {"measurement": "bioavailability", "setting": "plasma, rat, PO 1.22 mg eq./kg", "result": 36, "unit": "%"}, {"measurement": "Tmax", "setting": "plasma, rat, dose 10 mg/kg, cross-species summary, read-out: T max", "result": "30 to 60", "unit": "min"}, {"measurement": "AUC(0-inf)", "setting": "[1]", "result": 47.6, "unit": "µM·h"}, {"measurement": "half-life", "setting": "rat, brain, iv, 1.22 mg/kg, rat brain, IV 1.22 mg eq./kg, read-out: Half-life (t½) (converted)", "result": 137, "unit": "min"}, {"measurement": "Cmax", "setting": "[1]", "result": 11, "unit": "µM"}, {"measurement": "half-life", "setting": "rat, brain, oral, subcutaneous, summary for rats and mice, rat, read-out: brain elimination half-lives after extravascular administrations", "result": "138 to 228", "unit": "min"}, {"measurement": "half-life", "setting": "rat, brain, po, 1.22 mg/kg, rat brain, PO 1.22 mg eq./kg, estimated using the LOQ for the 24 hr concentration, large imprecision, read-out: Half-life (t½) (converted)", "result": "< 152", "unit": "min"}, {"measurement": "AUC(0-inf)", "setting": "[2]", "result": 21.1, "unit": "µM·h"}, {"measurement": "Cmax", "setting": "[2]", "result": 2.17, "unit": "µM"}, {"measurement": "AUC(0-inf)", "setting": "[3]", "result": 256, "unit": "µM·h"}, {"measurement": "half-life", "setting": "rat, brain, po, 10 mg/kg, rat brain, PO 10.0 mg eq./kg, read-out: Half-life (t½) (converted)", "result": 222, "unit": "min"}, {"measurement": "Cmax", "setting": "[3]", "result": 25.4, "unit": "µM"}, {"measurement": "AUC(0-inf)", "setting": "[4]", "result": 53, "unit": "µM·h"}, {"measurement": "half-life", "setting": "rat, brain, sc, 1 mg/kg, rat brain, SC 1.0 mg eq./kg, read-out: Half-life (t½) (converted)", "result": 151, "unit": "min"}, {"measurement": "Cmax", "setting": "[4]", "result": 10.6, "unit": "µM"}, {"measurement": "AUC(0-inf)", "setting": "[5]", "result": 442, "unit": "µM·h"}, {"measurement": "half-life", "setting": "rat, brain, sc, 10 mg/kg, rat brain, SC 10.0 mg eq./kg, read-out: Half-life (t½) (converted)", "result": 159, "unit": "min"}, {"measurement": "Cmax", "setting": "[5]", "result": 75.4, "unit": "µM"}, {"measurement": "half-life", "setting": "rat, plasma, intravenous, oral, subcutaneous, rat, all dose routes and levels (plasma; b142 also brain), read-out: elimination half-life", "result": "180 to 240", "unit": "min"}]}
